# Molecular target: Parkin (Homo sapiens, UniProt O60260)
# Assay: Parkin pUB Auto-ubiquitinylation Assay (TR-FRET)
# Assay type: biochemical
# Conditions: Parkin activation, pUb activated Parkin; read-out: Auto-ubiq EC50 (μM) [Example 3]
# From the text: A Parkin pUB Auto-ubiquitinylation Assay is used to evaluate a compound's potency to activate Parkin's ability to Auto-ubiquitinylate itself.
# The principle of this assay is that the E3 Ligase Parkin catalyzes the transfer of Ubiquitin to target proteins, but also has the ability to auto-ubiquitinylate itself. The phospho-Ubiquition (pUb) added to the assay alters the Parkin to a state where small molecule activators can enable the Parkin to auto-ubiquitinylate though the E1-E2 cascade reaction. The use of a Eu cryptate Ubiquition and anti 6His-d2 that binds to the His tagged Parkin will give a signal when the Eu cryptate Ubiquition is auto-ubiquitinylate onto the Parkin which can be monitored by TR-FRET.
# Similar to the Activity-based probe assay in Example 2, screening for activating compounds can be distinguished from the controls as follows: • 100% activation signal=pUb activated Parkin+40 nM control activator in DMSO. • 0% activation signal=pUb activated Parkin+DMSO only. • Parkin activators can be identified by an increase of the 0% activation signal TR-FRET signal. Materials: • Assay Plate: White 384 well plate (Corning 3572) • Enzyme 1: E1 (Ubiquitin-activating enzyme/UBE1 Boston Biochem E-305) • Enzyme 2: E2 (UBcH7/Ube2L3 Boston Biochem E2-640) • Enzyme 3: Parkin-His tagged 203 μM (10.5 mg/ml) • pUb: Phospho-Ubiquitin (S65) (Boston Biochem U-102) • Eu Cryptate Reagent: Ubiquitin Eu (CisBio 61UBIKLA) • DMSO: DMSO (Sigma-34869-2.5L) • Reaction Buffer: 50 mM HEPES, 50 mM NaCl, 1 mM MgCl2, 0.005% Tween 20, 0.1% PF-127 (Fisher Scientific 50-310-494), pH 8.5 • Detection Buffer: 50 mM HEPES, 50 mM NaCl, 800 mM KF, 5 mM EDTA, 0.005% Tween 20, 0.1% PF-127, pH 8.5 • Detection Reagent Z: 13.4 nM Anti-6His-d2 in detection buffer • d2 Reagent: Anti-6His-d2 (CisBio 61HISDLA)
# Enzyme Reaction (15 min pre-incubation with Parkin, pUb and activator only) • Parkin: 196 nM • pUb: 196 nM • DMSO: 1% DMSO • E1: 5 nM • E2: 50 nM • Ubiquitin Eu: 8.8 nM • Reaction time: 120 minutes • Temperature: 22° C. • Total volume: 10 μl reaction
# Take 10 μl of Enzyme Reaction above and add 10 μl detection Reagent Z under the following conditions:
# Assay Procedure: • 1) Load assay plate wells with 4.9 μl 400.0 nM Parkin, 400 nM pUb in reaction buffer by use of Eppendorf 12-channel pipette. • 2) Deliver 0.1 μl 100× activator candidates in DMSO by use of Echo 555 compound dispenser. Highest 100× concentration=100 μm and then twofold dilutions. Add each compound and control in duplicate wells. • 3) Spin 1000 rpm, 2 minutes, at room temp. • 4) Incubate plate for 15 minutes at room temp. • 5) Add 5 μl 10 nM E1, 100 nM E2, 17.6 nM Ubiquitin Eu and 2 mM ATP in Reaction Buffer by use of Eppendorf 12-channel pipette. • 6) Spin 1000 rpm, 2 minutes, at room temp. • 7) Incubate plate for 120 minutes at room temp. • 8) Add 10 μl 13.4 nM anti his d2 in detection buffer by use of Eppendorf 12-channel pipette. • 9) Spin 1000 rpm, 2 minutes, at room temp. • 10) Incubate plate for 120 minutes at room temp. • 11) Read plates on Perkin Elmer Envision instrument with the following parameters: • LANCE dual laser protocol loaded into the Envision® software • Top Mirror: LANCE/DELFIA Duel/Bias (Bar code 446) • Emission Filter: APC 665 EM (Bar code 205) • 2nd Emission Filter: Europium 615 EM (Bar code 203) • Read 655 nm (channel 1) and 615 nm (channel 2) wavelengths on Envision®
# Data Analysis: The Data can be read in CSV files. There are two tables in those CSV files, which are the values of 655 nm (channel 1) and 615 nm (channel 2) wavelengths respectively. The data is converted to an HTRF Ratio=(Channel 1/Channel 2)*10,000
# The average of all the 0 uM controls (DMSO only)=BKGD (Background—0% activation). Subtract BKGD from each HTRF Ratio value=HTRF-BKGD. The average of all the […] control activator in DMSO controls=Max (100% activation). The following equation is then used to calculate % Activation for each well/candidate as follows: % Activation=(HTRF-BKGD/Max)*100. […]
# Chain of Parkin (O60260 whole entry, other chains not shown): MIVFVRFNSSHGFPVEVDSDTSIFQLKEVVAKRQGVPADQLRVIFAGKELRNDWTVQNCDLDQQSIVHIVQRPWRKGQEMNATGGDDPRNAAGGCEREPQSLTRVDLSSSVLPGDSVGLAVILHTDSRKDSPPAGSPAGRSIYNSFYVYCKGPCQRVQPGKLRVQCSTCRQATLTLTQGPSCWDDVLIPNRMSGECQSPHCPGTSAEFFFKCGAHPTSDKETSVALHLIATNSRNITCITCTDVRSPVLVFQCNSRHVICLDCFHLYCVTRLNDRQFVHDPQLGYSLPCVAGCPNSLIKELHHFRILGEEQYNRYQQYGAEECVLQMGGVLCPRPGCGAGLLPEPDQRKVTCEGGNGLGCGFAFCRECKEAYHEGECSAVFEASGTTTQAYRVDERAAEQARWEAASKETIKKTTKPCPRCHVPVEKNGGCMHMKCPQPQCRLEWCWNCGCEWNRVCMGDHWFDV
row,Compound,EC50
1,O=C(Nc1nc(Nc2ncnc3ccccc23)n(-c2ccccc2)n1)c1cccs1 [Compound C1],> 100 µM
2,O=C(Nc1nc(NC(=O)c2ccccc2)n(-c2cccc3ncccc23)n1)c1ccccc1 [Compound P2],> 40 µM
3,O=C(/C=C/c1ccccc1)Nc1nc(NC(=O)c2ccccc2)nn1-c1ccccn1 [Compound U1],> 40 µM
4,O=C(Nc1nc(NC(=O)c2ccc(I)cc2)n(-c2ccccc2)n1)c1ccc(I)cc1 [D],> 40 µM
5,Cc1ccccc1C(=O)Nc1nc(-c2ccccn2)nn1-c1ccccc1 [Compound Q2],> 40 µM
6,O=C(Nc1nc(NC(=O)c2ccc3ccccc3n2)n(-c2ccccc2)n1)c1ccccc1 [Compound B2],> 40 µM
7,CCN(CC)c1nc(Nc2nc(NC(=O)c3ccccc3)nn2-c2ccccc2)nc2ccccc12 [X],> 40 µM
8,c1ccc(-n2nc(-c3ccccn3)nc2Nc2ncnc3ccccc23)cc1 [Compound U2],> 40 µM
9,CN1CCC(C(=O)Nc2nc(Nc3ncnc4ccccc34)n(-c3ccccc3)n2)CC1 [Compound D1],> 40 µM
